Key:
Format in all cases: in vivo
senior dogs [1] = assay: Dog food mixed with GABA fed to senior dogs, observation of age-related conditions; settings: 2 weeks
Description: Dog food was mixed with GABA (30 mg/kg body weight). Mongrel dog A (17 years old) was fed this mixture once a day in the evening for 2 weeks. […] Dog food was mixed with GABA (30 mg/kg body weight). Mongrel dog B (14 years old) was fed this mixture once a day for 2 weeks. […] Dog food was mixed with GABA (30 mg/kg body weight). Toy poodle A (15 years old) was fed this mixture once a day for 2 weeks. […] Dog food was mixed with GABA (30 mg/kg body weight). Toy poodle B (12 years old) was fed this mixture once a day for 2 weeks. […] Dog food was mixed with GABA (30 mg/kg body weight). Pomeranian A (14 years old) was fed this mixture once a day for 2 weeks. […] Dog food was mixed with GABA (30 mg/kg body weight). Shiba Ken (Japanese breed) A (16 years old) was fed with this mixture once a day for 2 weeks.

sympathetic nerve = assay: RR interval by Holter ECG after oral GABA in Beagle dogs; settings: 10 month old Beagle dogs
Description: Three 10 month old Beagle dogs were confined in darkness from 19:00 (7pm) until 7:00 (7am). An electrocardiogramr was obtained under free movement using a Holter ECG recorder (wireless installation-type ECG recorder). An electrocardiogram was obtained every 30 minutes for 1 minute. A capsule containing 300 mg/kg body weight of GABA was orally administered to each dog just before the dark period. As a control, an empty capsule was administered.
An RR interval (msec, inverse number of a heart rate) relative to the time that lapsed after administration was measured.

senior dogs [2] = assay: Intravenous SKF 97541 in a senior dog, turning motion; settings: Shiba Ken B (15 years old), single intravenous dose of from 0.01 to 0.1 mg/kg body weight
Description: SKF 97541 was intravenously administered once to Shiba Ken B (15 years old) at a dose of from 0.01 to 0.1 mg/kg body weight.

[3] = Mongrel dog B (14 years old), 30 mg/kg body weight in dog food once a day
[4] = Pomeranian A (14 years old), 30 mg/kg body weight in dog food once a day
[5] = Shiba Ken A (16 years old), 30 mg/kg body weight in dog food once a day
[6] = Toy poodle A (15 years old), 30 mg/kg body weight in dog food once a day
[7] = Toy poodle B (12 years old), 30 mg/kg body weight in dog food once a day

SMILES | forced and labored breathing (senior dogs [1]; Mongrel dog A (17 years old), 30 mg/kg body weight in dog food once a day in the evening) | drinking behaviour (senior dogs [1]; [3]) | leg trembling (senior dogs [1]; [3]) | mobility and general health (senior dogs [1]; [3]) | continuous sleeping all day long (senior dogs [1]; [4]) | desire to go for a walk (senior dogs [1]; [4]) | general health and activity level (senior dogs [1]; [4]) | ability to move around (senior dogs [1]; [5]) | mobility (senior dogs [1]; [5]) | behaviour towards owner (senior dogs [1]; [6]) | difficult breathing (senior dogs [1]; [6]) | sense of hearing and sense of smell, mobility and general health (senior dogs [1]; [6]) | mobility (senior dogs [1]; [7]) | walking (tottering steps before administration) (senior dogs [1]; [7]) | stimulus of the sympathetic nerve (sympathetic nerve; GABA 300 mg/kg body weight oral capsule) | average RR interval (inverse number of a heart rate) (sympathetic nerve; GABA 300 mg/kg body weight oral capsule before dark period, approximately 2 to 9 hours after administration, vs empty capsule) | turning motion (senior dogs [2])
NCCCC(=O)O [GABA, γ-aminobutyric acid] | disappeared | drank water on its own | disappeared | improvement in mobility and general health was observed | decreased | clearly showed signs that he wanted to go for a walk | improvement in general health and activity level was observed | able to move around easier and clearly with less pain | improvement in mobility was observed | sought out his owner and wanted to stay by him | decreased | improvement | improvement in mobility was observed | walked firmly with steady steps | stimulus of the sympathetic nerve was observed | shortened | –
CP(=O)(O)CCCN [SKF 97541, 3-aminopropyl(methyl)phosphinic acid] | – | – | – | – | – | – | – | – | – | – | – | – | – | – | – | – | eliminated at any dose
